The subject of one experiment is BnSCL1 gene expression. In words: Quantitative one-step RT-PCR of BnSCL1 expression in treated seedlings. In kind it is in vivo, Brassica napus. Conditions: 10 mM for 24 h, then 2,4-D 10^-6 to 10^3 μM. As to the method:
In exogenous applied auxin treatments, four-leaf stage seedlings grown at 20° C. were treated with a foliar spray containing 1 mM 2,4-D and 50 mM sodium phosphate, pH 7.5. The four leaves were collected at 30 min, 60 min and 180 min after the first foliar application of 2,4-D. For the measurement of response of shoots and roots to auxin, sterilized seeds were germinated on plates in a growth chamber with continuous light at 20° C., and 10 dpg seedlings were supplied with varied concentration of 2,4-D. In the auxin transport inhibition experiments, 9 dpg seedlings were incubated in the medium supplemented with 50 μM NPA dissolved in 0.1% DMSO for 24 h before the 2,4-D treatment. For the HDAC inhibitor treatments, 10 mM sodium butyrate was added onto the growth medium and incubated for 24 h followed by exogenous 2,4-D application at varied concentrations.
Total RNA extracted as described above was treated with Amplification Grade Deoxyribonuclease I (GibcoL BRL) following the manufacture's instructions. The RNA samples were then directly used for reverse transcription prior to amplification without purification. The RT-PCR was quantitatively performed and completed in a one-step reaction using […] One-Step RT-PCR System (GibcoL BRL) as described by Gao et al. (2002). Gene-specific sense and anti-sense primers used to generate a 960 bp fragment of Brassica napus Actin, as an internal standard, were as described in Gao et al., (2002). Gene-specific primers for the generation of BnSCL1, BnIAA1 and BnIAA12 fragments were as follows: […]

Experiment [1] relates to auxin-inducible GUS expression. The settings on record: seedlings, up to 1 mM for 24 h; cited from earlier work.

As for `CCCC(=O)[O-].[Na+]` [sodium butyrate], the “BnSCL1 expression profile in shoots and roots in response to auxin after HDAC inhibition” value in the experiment with BnSCL1 gene expression is “upregulated by auxin at concentration of 1 pM and downregulated by auxin at higher concentrations”. Moreover, the “effect on auxin-inducible GUS expression” value in experiment [1] is given as “no effect”.

(Values after patent publication US7553667B2, “Regulation of gene expression using chromatin remodelling factors” (Her Majesty the Queen in right of Canada as represented by …, priority 2002, dated 2009).)
